According to US10526580B2, “Differentiated cell population of endothelial cells derived from human pluripotent stem cells, composition, system, kit and uses thereof” (BIOCANT-ASSOCIAÇÃO DE TRANSFERÊNCIA DE TECNOLOGIA, priority 2012, dated 2020):
Where a name gives a salt, the structure may show the parent alone.

Tested on: hESC-derived ECs versus ACL cells
Assay: High-throughput screening of LOPAC library, PrestoBlue cell viability, hESC-derived ECs versus ACL cells
Assay type: cell-based, human
Details: LOPAC screen, 4.5 μM, 4 days of incubation, PrestoBlue assay
Experimental: High-throughput screening (HTS). HUAECS (Lonza) and hESC-derived ECs were cultured in EGM-2 medium while human anterior cruciate ligament cells (ACL cells) were cultured in Dulbecco's modified Eagle's medium (DMEM; PAA) supplemented with 10% FBS, 0.2 mM ascorbic acid 2-phosphate magnesium salt (Sigma Aldrich), […] streptomycin and 100 U/mL penicillin (Life Technologies). ACL cells were isolated from patients that have signed an informed consent form, in compliance with the Dutch legislation. The ethical committee of Medisch Spectrum Twente Hospital approved the collection.
The LOPAC library (Sigma-Aldrich) was used to screen embryonic endothelial-specific cytotoxic compounds. The compounds were solubilized in DMSO. The final compound concentration used in the screen was 4.5 μM in a final volume of 200 μL per well (96-well plate). HUAECs, hESC-derived EC and ACL cells were seeded at 16,000 cells/well (HUAECs and hESC-derived ECs) and 5,000 cells/well (ACL cells) and allowed to reach near confluence (approximately two days). After two days, medium was exchanged and test compounds and controls were added to the 96-well plates (all wells contained 0.25% (v/v) DMSO). After 4 days of incubation, cell viability was assessed using a PrestoBlue (Invitrogen) assay. This assay is based on a resazurin-based solution that indicates the reducing power of living cells and therefore measures indirectly their number. For each measurement, cell medium was removed and the PrestoBlue solution (10%) was added for 3 h at 37° C. upon which the absorbance was measured at 560-590 nm.
Disruption of vascular development has been directly correlated with prenatal loss, malformations and neurodevelopmental problems^41-44. […] The library was screened at a single dosage of 4.5 μM in a volume of 200 μL per well of EGM-2 medium, containing 0.25% DMSO (v/v). […] Six compounds (danazol, chlorpromazine hydrochloride, ellipticine, 3′,4′-dichlorobenzamil, fluphenazine dihydrochloride and 7-cyclopentyl-5-(4-phenoxy)phenyl-7H-pyrrolo[2,3-d]pyrimidin-4-ylamine) affected cell viability in both cells by a difference of 20% (FIG. 4B). The six compounds belong to different classes: cell cycle, ion pumps, dopamine pathway, phosphorylation and hormone signaling. The compounds selected from the primary screen were then tested against hESC-derived ECs and HUAECs at eight different concentrations to obtain a dose-response curve (FIG. 4C and FIG. 14).

Row | Compound | Differences (%) in cell viability (hESC-Derived ECs versus ACL cells)
1 | C[C@@H]1O[C@@H](O[C@H]2C[C@@H](O)[C@]3(CO)[C@H]4[C@H](O)C[C@]5(C)[C@@H]([C@@H]6COC(=O)C6)CC[C@]5(O)[C@@H]4CC[C@]3(O)C2)[C@H](O)[C@H](O)[C@H]1O [Dihydroouabain] | 97.0%
2 | N#C/C(=C\c1ccc(O)c(O)c1)C(=O)NCc1ccccc1 [Tyrphostin AG 490] | 56.3%
3 | CN(C)S(=O)(=O)c1ccc2c(c1)/C(=C/c1cc3c([nH]1)CCCC3)C(=O)N2 [SU 6656] | 61.5%
4 | c1ccc2c(c1)[I+]c1ccccc1-2 [Diphenyleneiodonium chloride] | 69.6%
5 | COC[C@H]1OC(=O)c2coc3c2[C@@]1(C)C1=C(C3=O)[C@@H]2CCC(=O)[C@@]2(C)C[C@H]1OC(C)=O [Wortmannin from Penicillium funiculosum, Wortmannin] | 57.9%
6 | CCC(=O)c1ccc2c(c1)N(CCCN(C)C)c1ccccc1S2 [Propionylpromazine hydrochloride] | 50.3%
7 | Cc1cc(N)c2ccccc2[n+]1CCCCCCCCCC[n+]1c(C)cc(N)c2ccccc21 [Dequalinium dichloride] | 60.6%
8 | C[C@@H]1O[C@@H](O[C@H]2C[C@@H](O)[C@]3(CO)[C@H]4[C@H](O)C[C@]5(C)[C@@H](C6=CC(=O)OC6)CC[C@]5(O)[C@@H]4CC[C@]3(O)C2)[C@H](O)[C@H](O)[C@H]1O [Ouabain] | 94.6%
9 | COc1cc(OC)c(C=C2C(O)=Nc3ccccc32)c(OC)c1 [IC 261] | 73.0%
10 | C[n+]1cc2c3c(ccc2c2ccc4cc5c(cc4c21)OCO5)OCO3 [Sanguinarine chloride] | 96.4%
11 | CC(C)[C@H]1c2ccc(F)cc2CC[C@@]1(CCN(C)CCCc1nc2ccccc2[nH]1)OC(=O)C1CC1 [NNC 55-0396] | 98.4%
12 | C/C=C(/C)C(=O)O[C@H]1C(C)=C2[C@H]([C@@H]1OC(=O)CCCCCCC)[C@@](C)(OC(C)=O)C[C@H](OC(=O)CCC)[C@@]1(O)[C@H]2OC(=O)[C@@]1(C)O [Thapsigargin] | 94.8%
13 | Cl.Cl.OCCN1CCN(CC/C=C2/c3ccccc3Sc3ccc(C(F)(F)F)cc32)CC1 [cis-(Z)-Flupenthixol dihydrochloride] | 69.6%
14 | COc1cc([C@@H]2c3cc4c(cc3[C@H](O)[C@H]3COC(=O)[C@H]23)OCO4)cc(OC)c1OC [Podophyllotoxin] | 75.7%
15 | COC(=O)Nc1nc2ccc(C(=O)c3cccs3)cc2[nH]1 [Nocodazole] | 76.4%
16 | CCCCCCCCCCCCCCCCCC(=O)NCC(COP(=O)([O-])OCC[N+](C)(C)C)OCC (racemic) [rac-2-Ethoxy-3-octadecanamido-1-propylphosphocholine] | 56.2%
17 | CNc1ccc2oc(C[C@H]3O[C@@]4(CC[C@H]3C)O[C@H]([C@H](C)C(=O)c3ccc[nH]3)[C@H](C)C[C@H]4C)nc2c1C(=O)O [Calcimycin] | 96.2%
18 | (±)-Butaclamol hydrochloride | 53.6%
19 | CCCCCCCC/C=C\CCCCCCCC(=O)NCCc1ccc(O)c(O)c1 [N-Oleoyldopamine] | 54.8%
20 | C[C@]12C=CC(=O)C=C1CC[C@@H]1C2=CC[C@]2(C)[C@@H](C(=O)CN3CCN(c4cc(N5CCCC5)nc(N5CCCC5)n4)CC3)CC[C@@H]12.O=C(O)/C=C\C(=O)O [U-74389G maleate] | 51.6%
21 | N#C/C(=C\c1ccc(O)c(O)c1)C(=O)NCCCNC(=O)/C(C#N)=C/c1ccc(O)c(O)c1 [Tyrphostin AG 537] | 52.3%
22 | Cc1nc2n(c(=O)c1CCN1CCC(c3noc4cc(F)ccc34)CC1)CCCC2 [Risperidone] | 56.9%
23 | O=C(Nc1ccc([N+](=O)[O-])cc1Cl)c1cc(Cl)ccc1O [Niclosamide] | 97.6%

Row | Compound | Differences (%) in cell viability (hESC-Derived ECs versus ACL cells)
24 | CC(=O)c1c(O)c(C)c(O)c(Cc2c(O)c3c(c(C(=O)/C=C/c4ccccc4)c2O)OC(C)(C)C=C3)c1O [Rottlerin] | 61.6%
25 | C[C@H]1O[C@@H](n2cc(F)c(=O)[nH]c2=O)[C@H](O)[C@@H]1O [5-fluoro-5′-deoxyuridine] | 60.8%
26 | C[C@@H](NC(=O)/C(C#N)=C/c1ccc(O)c(O)c1)c1ccccc1 [Tyrphostin AG 527] | 53.4%
27 | CC(C)(C)c1ccc(C(O)CCCN2CCC(C(O)(c3ccccc3)c3ccccc3)CC2)cc1 (stereo not drawn) [Terfenadine] | 98.3%
28 | CC(C)[C@@]1(NC(=O)[C@@H]2C=C3c4cccc5[nH]cc(c45)C[C@H]3N(C)C2)O[C@@]2(O)[C@@H]3CCCN3C(=O)[C@H](Cc3ccccc3)N2C1=O [Ergocristine] | 52.5%
29 | CN1CCN(CCCN2c3ccccc3Sc3ccc(C(F)(F)F)cc32)CC1 [Trifluoperazine dihydrochloride] | 54.0%
30 | Ivermectin | 78.7%
31 | C/C(=C\c1ccc(C(=O)O)cc1)c1ccc2c(c1)C(C)(C)CCC2(C)C [TTNPB] | 92.6%
32 | CCOC(=O)C1=C(C)NC(C)=C(C(=O)OC)C1c1cccc(Cl)c1Cl (stereo not drawn) [Felodipine] | 58.1%
33 | CC(=O)O[C@H]1C(=O)[C@@]2(C)[C@H]([C@H](OC(=O)c3ccccc3)[C@]3(O)C[C@H](OC(=O)[C@H](O)[C@@H](NC(=O)c4ccccc4)c4ccccc4)C(C)=C1C3(C)C)[C@]1(OC(C)=O)CO[C@@H]1C[C@@H]2O [Taxol] | 78.1%
34 | Cc1cc(N)c2ccccc2[n+]1CCCCCCCCCCCCCC[n+]1c(C)cc(N)c2ccccc21 [Dequalinium analog, C-14 linker] | 96.6%
35 | Cc1scc2c1N(C(=O)CN1CCN(C)CC1)c1ccccc1NC2=O [Telenzepine dihydrochloride] | 68.9%
36 | C[C@@]12C(=O)OC(=O)[C@]1(C)[C@H]1CC[C@@H]2O1 [Cantharidin] | 94.3%
37 | COc1ccc(CCN(C)CCCC(C#N)(c2ccc(OC)c(OC)c2)C(C)C)cc1OC.Cl (racemic) [(±)-Verapamil hydrochloride] | 85.1%
38 | COc1cccc2c1[C@@H]1CN(CCCCn3c(=O)[nH]c4c(sc5ncc(-c6ccccc6)nc54)c3=O)C[C@@H]1CO2 [Fiduxosin hydrochloride] | 58.2%
39 | C=CCc1ccccc1OCC(O)CNC1(C)CCC(C(C)(C)NC(=O)CBr)CC1 (stereo not drawn) [Bromoacetyl alprenolol menthane] | 93.4%
40 | Cn1c(=O)c2[nH]c(-c3ccccc3)nc2n(C)c1=O [1,3-Dimethyl-8-phenylxanthine] | 68.8%
41 | O=C1c2c(O)ccc(O)c2C(=O)c2c(NCCNCCO)ccc(NCCNCCO)c21 [Mitoxantrone] | 94.4%
42 | CCn1c(=O)[nH]c2cc(Cl)c(Cl)cc21 [DCEBIO] | 73.2%
43 | CC[C@@]1(O)C(=O)OCc2c1cc1n(c2=O)Cc2cc3ccccc3nc2-1 [(S)-(+)-Camptothecin] | 96.3%
44 | CC1(C(=O)O)C2CCC(O2)C1(C)C(=O)O (stereo not drawn) [Cantharidic Acid] | 93.8%
45 | O=C1Nc2ccccc2/C1=C1/Nc2ccccc2/C1=N\O [Indirubin-3′-oxime] | 85.5%
